Values quoted from earlier work as cited in patent publication US10646430B2, “Topical compositions for stimulating adipogenesis and lipogenesis to reduce the signs of skin aging” (Kimberly-Clark Worldwide, Inc., priority 2014, dated 2020).

Tested on: 3T3-L1 cells
Settings: Kim et al., Nutr. Res. 32(6): 439-447

In the case of Fucoidan, the “adipogenesis (literature)” value is listed as “inhibit adipogenesis”.
